Results taken from patent US20210230203A1, “Amphiphilic Kanamycin Compositions and Methods” (priority 2020, published 2021).
In brackets after ≈: the same amount, converted by molar mass.

Key:
Candida parapsilosis = assay: MIC against yeast, CLSI M27 & M38 (Table 2); conditions: Table 2, RPMI 0.165M MOPS, 24-72 hours
C. krusei = assay: MIC against yeast, CLSI M27 & M38 (Table 2); conditions: C. krusei ATCC 6258; Table 2; RPMI 0.165M MOPS; 24-72 hours
Apaphysomyces = assay: MIC against various species, CLSI M27 & M38 (Table 4); type: cell-based, Apophysomyces; conditions: 24-72 hours
Cryptococcus neoformans = assay: MIC against yeast, CLSI M27 & M38 (Table 2); conditions: 24-72 hours
A. furnigatus = assay: MIC against various species, CLSI M27 & M38 (Table 4); conditions: 24-72 hours
C. auris = assay: as above; conditions: 24-72 hours
P. variotil = assay: as above; type: cell-based, Paecilomyces variotii; conditions: P. variotil QC, RPMI 0.165M MOPS, 24-72 hours
C. parapsilosis = assay: as above; conditions: C. parapsilosis QC ATCC 22019; Table 4; RPMI 0.165M MOPS; 24-72 hours
[1] = system: S. aureus (ATCC 43300) MRSA; type: cell-based
[2] = Apaphysomyces APO1, RPMI 0.165M MOPS
[3] = Apaphysomyces APO2, RPMI 0.165M MOPS
[4] = Apaphysomyces APO3, RPMI 0.165M MOPS
[5] = Cryptococcus neoformans CN1, RPMI 0.165M MOPS
[6] = Cryptococcus neoformans H99, RPMI 0.165M MOPS
[7] = Cryptococcus neoformans USC1597, RPMI 0.165M MOPS
[8] = A. furnigatus AF1, RPMI 0.165M MOPS
[9] = A. furnigatus AF2, RPMI 0.165M MOPS
[10] = A. furnigatus AF3, RPMI 0.165M MOPS
[11] = C. auris DI17-46, RPMI 0.165M MOPS
[12] = C. auris DI17-47, RPMI 0.165M MOPS
[13] = C. auris DI17-48, RPMI 0.165M MOPS

Structure (SMILES): CCCCCCCCCCCCCCCC(=O)NC[C@H]1O[C@H](O[C@H]2[C@H](O)[C@@H](O[C@H]3O[C@H](CO)[C@@H](O)[C@H](N)[C@H]3O)[C@H](N)C[C@@H]2N)[C@H](O)[C@@H](O)[C@@H]1O [KI06]
- Minimum inhibitory concentration 50% (Candida parapsilosis; C. parapsilosis ATCC 22019): 4 µg/mL (≈ 5.53 µM)
- Minimum inhibitory concentration 100% (Candida parapsilosis; C. parapsilosis ATCC 22019): 8 µg/mL (≈ 11.1 µM)
- Minimum inhibitory concentration 50% (Candida parapsilosis; Candida parapsilosis CP1): 4 µg/mL (≈ 5.53 µM)
- Minimum inhibitory concentration 100% (Candida parapsilosis; Candida parapsilosis CP1): 8 µg/mL (≈ 11.1 µM)
- Minimum inhibitory concentration 50% (Candida parapsilosis; Candida parapsilosis CP2): 4 µg/mL (≈ 5.53 µM)
- Minimum inhibitory concentration 100% (Candida parapsilosis; Candida parapsilosis CP2): 8 µg/mL (≈ 11.1 µM)
- Minimum inhibitory concentration 50% (Candida parapsilosis; Candida parapsilosis CP3): 8 µg/mL (≈ 11.1 µM)
- Minimum inhibitory concentration 100% (Candida parapsilosis; Candida parapsilosis CP3): 16 µg/mL (≈ 22.1 µM)
- Minimum inhibitory concentration 50% (C. krusei): 8 µg/mL (≈ 11.1 µM)
- Minimum inhibitory concentration 100% (C. krusei): 8 µg/mL (≈ 11.1 µM)
- Minimum inhibitory concentration 50% (Apaphysomyces; [2]): 2 µg/mL (≈ 2.77 µM)
- Minimum inhibitory concentration 100% (Apaphysomyces; [2]): 2 µg/mL (≈ 2.77 µM)
- Minimum inhibitory concentration 50% (Apaphysomyces; [3]): 1 µg/mL (≈ 1.38 µM)
- Minimum inhibitory concentration 100% (Apaphysomyces; [3]): 4 µg/mL (≈ 5.53 µM)
- Minimum inhibitory concentration 50% (Apaphysomyces; [4]): 1 µg/mL (≈ 1.38 µM)
- Minimum inhibitory concentration 100% (Apaphysomyces; [4]): 4 µg/mL (≈ 5.53 µM)
- Minimum inhibitory concentration 50% (Cryptococcus neoformans; [5]): 4 µg/mL (≈ 5.53 µM)
- Minimum inhibitory concentration 100% (Cryptococcus neoformans; [5]): 4 µg/mL (≈ 5.53 µM)
- Minimum inhibitory concentration 50% (Cryptococcus neoformans; [6]): 4 µg/mL (≈ 5.53 µM)
- Minimum inhibitory concentration 100% (Cryptococcus neoformans; [6]): 4 µg/mL (≈ 5.53 µM)
- Minimum inhibitory concentration 50% (Cryptococcus neoformans; [7]): 4 µg/mL (≈ 5.53 µM)
- Minimum inhibitory concentration 100% (Cryptococcus neoformans; [7]): 4 µg/mL (≈ 5.53 µM)
- Minimum inhibitory concentration 50% (A. furnigatus; [8]): 8 µg/mL (≈ 11.1 µM)
- Minimum inhibitory concentration 100% (A. furnigatus; [8]): 8 µg/mL (≈ 11.1 µM)
- Minimum inhibitory concentration 50% (A. furnigatus; [9]): 32 µg/mL (≈ 44.3 µM)
- Minimum inhibitory concentration 100% (A. furnigatus; [9]): 32 µg/mL (≈ 44.3 µM)
- Minimum inhibitory concentration 50% (A. furnigatus; [10]): 8 µg/mL (≈ 11.1 µM)
- Minimum inhibitory concentration 100% (A. furnigatus; [10]): 16 µg/mL (≈ 22.1 µM)
- Minimum inhibitory concentration 50% (C. auris; [11]): 4 µg/mL (≈ 5.53 µM)
- Minimum inhibitory concentration 100% (C. auris; [11]): 8 µg/mL (≈ 11.1 µM)
- Minimum inhibitory concentration 50% (C. auris; [12]): 2 µg/mL (≈ 2.77 µM)
- Minimum inhibitory concentration 100% (C. auris; [12]): 4 µg/mL (≈ 5.53 µM)
- Minimum inhibitory concentration 50% (C. auris; [13]): 1 µg/mL (≈ 1.38 µM)
- Minimum inhibitory concentration 100% (C. auris; [13]): 4 µg/mL (≈ 5.53 µM)
- Minimum inhibitory concentration 50% (P. variotil): 8 µg/mL (≈ 11.1 µM)
- Minimum inhibitory concentration 100% (P. variotil): 8 µg/mL (≈ 11.1 µM)
- Minimum inhibitory concentration 50% (C. parapsilosis): 4 µg/mL (≈ 5.53 µM)
- Minimum inhibitory concentration 100% (C. parapsilosis): 8 µg/mL (≈ 11.1 µM)
- Minimum inhibitory concentration [1]: 16 µg/mL (≈ 22.1 µM)
